Data reported in patent US10202372B2, “Trisubstituted pyrido[2,3-D]pyrimidines, methods for preparing same and therapeutic uses thereof” (CENTRE NATIONAL DE LA RECHERCHE SCIENTIFIQUE (C.N.R.S), priority 2012, dated 2019).
pIC50: −log10 of the molar value. Where a name gives a salt, the structure may show the parent alone.

Assays:
PI3Kα = PI3Kα (Homo sapiens, UniProt P42336); test: PI3Kα kinase activity, Adapta TR-FRET ADP detection; assay type: biochemical; conditions: purified p110α/p85α heterodimer, triplicate; read-out: Kinases IC50 PI3Kα
Protocol: (§1) The activity of the PI3Kα kinase was evaluated by using a purified heterodimer (reference: PV4788 from Invitrogen) consisting of the α catalytic p110 subunit (PIK3CA) and the α regulation p85 subunit (PIK3R1). The assay of the kinase with the kit Adapta™ (reference: PV5099 from Invitrogen) is an enzymatic test based on the detection of ADP, produced during the reaction, by the fluorescence technique TR-FRET. It took place in a 384-well plate and was able to be divided into two phases: an enzymatic reaction phase, and a phase for detecting the ADP level.
(§2) During the enzymatic reaction phase, the following components were mixed in 10 μL of a same well: 2.5 μL of each dilution in series of inhibitors taken up in DMSO and then diluted to 1/25 in the reaction buffer (250 mM HEPES pH 7.5, 500 mM NaCl, 0.15 CHAPS, 5 mM EGTA, 15 mM MgCl2 and 1 mM DTT, ref.: PV5101 from Invitrogen), 2.5 μL of a solution containing PI3K at the optimum concentration (concentration defined according to the optimization step described in the operating procedure of the kit) diluted in the same reaction buffer, and finally, 5 μL of a solution containing 20 μM ATP and 100 μM PIP2 diluted in the reaction buffer. For each inhibitor concentration, the reaction was conducted in three copies (triplicate). The reaction was then incubated for 60 min at room temperature without any stirring in darkness.
(§3) During the phase for detecting ADP, 5 μL of a detection solution containing an anti-ADP antibody labeled with europium (6 nM), a tracer of the Alexa Fluor® 647 type coupled with ADP (30 nM), and EDTA (30 mM, for stopping the kinase reaction) were diluted in the dilution buffer (reference: PV3574 from Invitrogen). After 30 min of incubation at room temperature with stirring (40 rpm) in darkness, the 384-well plates were read in a plate reader Victor V configured for HTRF (Perkin Elmer). The excitation was produced at 340 nm and emission was measured at 665 nm and 615 nm. The inhibition curve was then plotted according to the emission ratio at 665 nm/615 nm versus the inhibitor concentration.
(§4) In order to obtain a linear response of the signal, a titration curve ATP-ADP, corresponding to the conversion % of ATP into ADP, was achieved by varying both of these species while keeping [ADP]+[ATP]=10 μM. The emission ratio at 665 nm/615 nm resulting from this (Y) was plotted versus the conversion % of ATP into ADP (X). The data of this curve were formatted according to a model with three hyperbolic parameters from the following equation: Y=C+A*(1−(X/(B+X))).
(§5) The software package GraphPad™ Prism® thus allows calculation of the parameters A, B and C. A conversion % corresponds to an emission ratio 665 nm/615 nm, this percentage is calculated by using the following equation: Conversion %=B*(C+A−Ratio)/(Ratio−C)
(§6) The three parameters A, B and C having been defined by the preceding equation, the conversion % was therefore able to be plotted versus the inhibitor concentration. The amount of inhibitor required for causing a 50% variation in the % conversion of ATP into ADP corresponds to the IC50 value of the inhibitor.

PI3Kγ = PI3Kγ (Homo sapiens, UniProt P48736); test: PI3Kγ kinase activity, Adapta TR-FRET ADP detection; assay type: biochemical; conditions: p110γ catalytic subunit; read-out: Kinases IC50 PI3Kγ
Protocol: as §1, §2, §3, §4, §5, §6
(§7) The activity of the kinase PI3Kγγ (PV4786 from Invitrogen) was evaluated on the p110γγ catalytic subunit (PI3KCG) and that of the kinase PI3Kδδ on the purified heterodimer (PV5273) respectively consisting of the δδ catalytic p110 subunit (PIK3CD) and the α regulation p85 subunit (PIK3R1) by following the same procedure.

PI3Kδ = PI3Kδ (Homo sapiens, UniProt O00329); test: PI3Kδ kinase activity, Adapta TR-FRET ADP detection; assay type: biochemical; conditions: purified p110δ/p85α heterodimer; read-out: Kinases IC50 PI3Kδ
Protocol: as §1, §2, §3, §4, §5, §6, §7

mTOR = mTOR (Homo sapiens, UniProt P42345); test: mTOR kinase activity, LANCE Ultra TR-FRET; assay type: biochemical; conditions: truncated mTOR protein, triplicate; read-out: Kinases IC50 mTOR
Protocol: The activity of the mTOR kinase was evaluated by using a purified truncated protein of the amino acids 1-1359 (reference: PV4753 from Invitrogen). The assay of the activity of the enzyme was carried out with the kit LANCE® Ultra which is an enzymatic test based on the detection of a phosphorylated peptide produced during the reaction, by using the fluorescence technique TR-FRET. It took place in a 384-well plate and was able to be divided into two phases: an enzymatic reaction phase and a phase for detecting the phosphorylated peptide.
During the enzymatic reaction phase, the following components were mixed in 10 μL of a same well: 5 μL of each dilution in series of inhibitors taken up in DMSO and then diluted to 1/25 in the reaction buffer (50 mM HEPES pH 7.5, 0.1% Tween-20, 1 mM EGTA, 10 mM MnCl2, 3 mM MgCl2 and 2 mM of DTT), 2.5 μL of a solution containing mTOR at the optimum concentration (concentration defined according to the optimization step described in the operating procedure of the kit) diluted in the same reaction buffer, and finally 2.5 μL of a solution containing 40 μM of ATP and 200 μM non-phosphorylated peptide diluted in the reaction buffer. For each inhibitor concentration, the reaction was conducted in three copies (triplicate). The reaction was then incubated for 120 min at room temperature without any stirring in darkness.
During the phase for detecting the phosphorylated peptide, 5 μL of an EDTA solution (32 mM) diluted in the dilution buffer (ref.: CR97-100 from Perkin Elmer) were injected into each well. After 5 min of incubation with stirring, 5 μL of a phosphorylated anti-peptide antibody solution labeled with europium (8 nM) and diluted in the same dilution buffer was added into each well. After 60 min of incubation at room temperature with stirring (40 rpm) in darkness, the 384-well plates were read in a plate reader Victor V configured for HTRF (Perkin Elmer). […] The inhibition curve was then plotted according to the fluorescence intensity value at 665 nm versus the inhibitor concentration.
The amount of inhibitor required for causing a 50% variation in the intensity of the signal corresponds to the IC50 value of the inhibitor.

HUH7 = test: Toxicity test on cells, HUH7; assay type: cell-based; conditions: Homo sapiens, Huh-7; 48 hours of treatment, Hoechst nuclei staining
Protocol: (§8) The compounds according to the invention were also tested on the cell lines HuH7, CaCo-2, HCT116, PC3, NCl, HacaT and Fibroblasts.
(§9) Operating Procedure: The cells were cultivated according to the ECACC recommendations. The toxicity test of the compounds on these cells was conducted as follows: 4×10^3 cells/well were sown in 96 wells. 24 hours after sowing the cells, the cells were exposed to increased concentrations of the compounds (0.1 μM-0.3 μM-0.9 μM-2.7 μM-8.3 μM-25 μM). After 48 hours of treatment, the cells were washed in PBS and bound in a cold ethanol/acetic acid (90/5) mixture for 20 minutes. Next, the nuclei were coloured with […] (Sigma). The acquisition of images and the analysis was carried out by means of a reader Cellomics ArrayScan VTI/HCS (Thermo Scientific).

CaCo2 = test: Toxicity test on cells, CaCo2; assay type: cell-based; conditions: Homo sapiens, Caco-2; 48 hours of treatment, Hoechst nuclei staining
Protocol: as §8, §9

MDA = test: Toxicity test on cells, MDA; assay type: cell-based; conditions: 48 hours of treatment, Hoechst nuclei staining
Protocol: [The procedure below names another cell line; the source lists this cell line under the same test.] as §8, §9

HCT116 = test: Toxicity test on cells, HCT116; assay type: cell-based; conditions: Homo sapiens, HCT-116; 48 hours of treatment, Hoechst nuclei staining
Protocol: as §8, §9

PC3 = test: Toxicity test on cells, PC3; assay type: cell-based; conditions: Homo sapiens, PC-3; 48 hours of treatment, Hoechst nuclei staining
Protocol: as §8, §9

NCl = test: Toxicity test on cells, NCl; assay type: cell-based; conditions: 48 hours of treatment, Hoechst nuclei staining
Protocol: as §8, §9

HacaT = test: Toxicity test on cells, HacaT; assay type: cell-based; conditions: Homo sapiens, 48 hours of treatment, Hoechst nuclei staining
Protocol: as §8, §9

Fibroblasts = test: Toxicity test on cells, Fibroblasts; assay type: cell-based; conditions: Fibroblast; 48 hours of treatment, Hoechst nuclei staining
Protocol: as §8, §9

Chain of PI3Kδ (O00329 whole entry): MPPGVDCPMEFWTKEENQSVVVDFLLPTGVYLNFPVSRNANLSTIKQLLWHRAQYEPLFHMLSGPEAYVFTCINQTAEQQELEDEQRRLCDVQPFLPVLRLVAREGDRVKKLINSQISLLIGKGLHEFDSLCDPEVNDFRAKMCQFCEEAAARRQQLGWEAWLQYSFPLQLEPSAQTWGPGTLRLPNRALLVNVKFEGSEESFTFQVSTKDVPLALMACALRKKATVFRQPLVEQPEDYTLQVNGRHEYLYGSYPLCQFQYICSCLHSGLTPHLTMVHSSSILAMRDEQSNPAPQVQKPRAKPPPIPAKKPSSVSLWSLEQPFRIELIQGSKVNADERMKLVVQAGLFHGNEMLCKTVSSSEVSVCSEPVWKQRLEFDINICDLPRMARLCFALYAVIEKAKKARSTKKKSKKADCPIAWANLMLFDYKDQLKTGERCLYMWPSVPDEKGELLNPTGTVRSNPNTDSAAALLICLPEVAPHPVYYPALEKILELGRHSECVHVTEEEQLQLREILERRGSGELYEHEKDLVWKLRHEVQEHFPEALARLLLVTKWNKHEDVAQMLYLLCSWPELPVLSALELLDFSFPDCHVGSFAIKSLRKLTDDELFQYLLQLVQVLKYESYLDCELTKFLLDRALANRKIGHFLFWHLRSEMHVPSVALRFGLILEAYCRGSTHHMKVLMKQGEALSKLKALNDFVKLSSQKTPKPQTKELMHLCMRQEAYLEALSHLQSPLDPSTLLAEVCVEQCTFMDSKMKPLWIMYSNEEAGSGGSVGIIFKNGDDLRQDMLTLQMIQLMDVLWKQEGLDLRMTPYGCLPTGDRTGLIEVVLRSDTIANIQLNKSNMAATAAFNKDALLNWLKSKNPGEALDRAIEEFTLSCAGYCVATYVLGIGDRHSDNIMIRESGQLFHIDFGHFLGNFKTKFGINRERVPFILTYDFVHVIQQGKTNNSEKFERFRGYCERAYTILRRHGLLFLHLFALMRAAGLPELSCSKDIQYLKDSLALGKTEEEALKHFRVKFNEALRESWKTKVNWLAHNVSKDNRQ
Chain of PI3Kδ (P27986 whole entry partner): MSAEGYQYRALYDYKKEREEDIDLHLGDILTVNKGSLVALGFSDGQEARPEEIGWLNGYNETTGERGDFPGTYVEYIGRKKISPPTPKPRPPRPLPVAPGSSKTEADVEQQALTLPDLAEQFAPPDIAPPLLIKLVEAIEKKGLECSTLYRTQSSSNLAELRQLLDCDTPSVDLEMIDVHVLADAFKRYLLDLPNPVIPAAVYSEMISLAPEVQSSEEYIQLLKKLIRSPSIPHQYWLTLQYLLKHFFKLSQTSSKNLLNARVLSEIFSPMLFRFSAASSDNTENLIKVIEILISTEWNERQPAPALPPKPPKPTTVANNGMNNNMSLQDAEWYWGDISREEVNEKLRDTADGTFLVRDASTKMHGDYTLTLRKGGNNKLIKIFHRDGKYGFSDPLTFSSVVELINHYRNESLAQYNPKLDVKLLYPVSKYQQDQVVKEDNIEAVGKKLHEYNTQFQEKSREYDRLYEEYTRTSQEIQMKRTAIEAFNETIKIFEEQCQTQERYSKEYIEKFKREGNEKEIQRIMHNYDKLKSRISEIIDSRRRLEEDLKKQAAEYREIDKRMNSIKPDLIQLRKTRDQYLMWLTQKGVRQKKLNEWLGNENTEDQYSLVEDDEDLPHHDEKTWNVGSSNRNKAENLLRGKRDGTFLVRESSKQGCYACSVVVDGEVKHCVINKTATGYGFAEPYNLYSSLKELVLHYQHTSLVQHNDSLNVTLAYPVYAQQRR
Chain of PI3Kγ (P48736 whole entry): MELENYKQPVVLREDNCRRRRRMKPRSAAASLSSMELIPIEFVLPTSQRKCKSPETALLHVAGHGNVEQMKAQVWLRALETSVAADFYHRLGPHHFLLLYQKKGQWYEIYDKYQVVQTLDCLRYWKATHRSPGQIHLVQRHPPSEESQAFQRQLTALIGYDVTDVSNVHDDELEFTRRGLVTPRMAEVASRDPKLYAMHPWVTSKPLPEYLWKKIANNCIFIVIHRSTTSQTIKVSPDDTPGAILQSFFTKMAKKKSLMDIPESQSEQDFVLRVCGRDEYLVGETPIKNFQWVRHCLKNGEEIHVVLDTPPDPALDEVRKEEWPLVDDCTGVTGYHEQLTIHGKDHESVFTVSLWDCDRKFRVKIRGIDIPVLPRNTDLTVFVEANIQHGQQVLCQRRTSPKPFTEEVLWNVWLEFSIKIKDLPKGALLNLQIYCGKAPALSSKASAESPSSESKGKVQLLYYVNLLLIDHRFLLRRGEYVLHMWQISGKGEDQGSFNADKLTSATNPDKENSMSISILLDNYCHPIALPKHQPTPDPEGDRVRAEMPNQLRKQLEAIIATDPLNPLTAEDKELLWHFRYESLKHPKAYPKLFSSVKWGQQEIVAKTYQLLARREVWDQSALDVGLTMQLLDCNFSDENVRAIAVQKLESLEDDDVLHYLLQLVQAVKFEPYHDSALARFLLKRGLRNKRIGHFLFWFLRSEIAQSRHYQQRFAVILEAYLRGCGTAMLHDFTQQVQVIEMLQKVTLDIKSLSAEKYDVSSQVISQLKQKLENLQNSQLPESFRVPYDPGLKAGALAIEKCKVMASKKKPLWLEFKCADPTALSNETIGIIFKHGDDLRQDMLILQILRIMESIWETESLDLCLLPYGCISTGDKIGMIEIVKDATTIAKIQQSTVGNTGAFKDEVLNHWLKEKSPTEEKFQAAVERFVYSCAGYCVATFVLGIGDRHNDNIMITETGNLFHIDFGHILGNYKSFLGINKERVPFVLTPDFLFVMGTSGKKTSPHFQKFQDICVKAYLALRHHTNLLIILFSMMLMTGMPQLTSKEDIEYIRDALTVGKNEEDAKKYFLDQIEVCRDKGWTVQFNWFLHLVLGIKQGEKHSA
Chain of mTOR (P42345 1360-2549): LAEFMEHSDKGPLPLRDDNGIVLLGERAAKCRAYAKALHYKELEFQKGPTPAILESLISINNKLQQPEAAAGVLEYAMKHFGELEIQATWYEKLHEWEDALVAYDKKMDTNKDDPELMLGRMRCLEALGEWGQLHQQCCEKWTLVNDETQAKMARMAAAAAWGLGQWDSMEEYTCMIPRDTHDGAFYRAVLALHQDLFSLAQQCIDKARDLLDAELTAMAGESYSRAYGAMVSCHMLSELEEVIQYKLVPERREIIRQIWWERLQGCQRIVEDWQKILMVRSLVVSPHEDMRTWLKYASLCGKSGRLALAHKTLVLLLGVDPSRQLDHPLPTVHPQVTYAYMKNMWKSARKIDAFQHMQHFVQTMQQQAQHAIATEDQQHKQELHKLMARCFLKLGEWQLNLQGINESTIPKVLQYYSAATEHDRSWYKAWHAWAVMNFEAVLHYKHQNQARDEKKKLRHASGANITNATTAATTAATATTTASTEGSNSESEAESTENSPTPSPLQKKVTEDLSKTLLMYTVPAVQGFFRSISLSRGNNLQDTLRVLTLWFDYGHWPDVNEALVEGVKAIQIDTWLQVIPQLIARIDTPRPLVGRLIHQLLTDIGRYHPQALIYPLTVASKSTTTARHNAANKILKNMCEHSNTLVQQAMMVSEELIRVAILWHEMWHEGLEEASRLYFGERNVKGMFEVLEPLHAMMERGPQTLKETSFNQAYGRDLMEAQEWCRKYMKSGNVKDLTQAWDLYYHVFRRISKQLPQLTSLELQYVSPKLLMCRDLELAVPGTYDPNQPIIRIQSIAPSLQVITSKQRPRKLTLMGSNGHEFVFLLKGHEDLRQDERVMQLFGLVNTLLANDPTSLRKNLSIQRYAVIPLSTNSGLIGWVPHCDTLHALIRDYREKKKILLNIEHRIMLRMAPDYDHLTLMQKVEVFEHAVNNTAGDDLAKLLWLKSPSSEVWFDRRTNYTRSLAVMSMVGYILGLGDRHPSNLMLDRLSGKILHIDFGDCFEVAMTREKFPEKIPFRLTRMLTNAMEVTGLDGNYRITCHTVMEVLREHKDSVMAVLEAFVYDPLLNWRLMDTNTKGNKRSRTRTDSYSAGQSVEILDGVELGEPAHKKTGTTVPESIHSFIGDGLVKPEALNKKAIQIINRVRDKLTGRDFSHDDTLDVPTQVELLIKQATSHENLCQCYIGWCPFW

Oc1cccc(-c2nc(N3CCOCC3)c3ncc(CN4CCOCC4)cc3n2)c1 [Compound 29, 3-(4-morpholino-7-(morpholinomethyl)pyrido[3,2-d]pyrimidin-2-yl) phenol hydrochloride]
pIC50 (PI3Kα): 7.37
pIC50 (PI3Kγ): 5.89
pIC50 (PI3Kδ): 7.39
pIC50 (mTOR): 6.54
pIC50 (HUH7): < 4.60
pIC50 (CaCo2): 5.52
pIC50 (MDA): < 4.60
pIC50 (HCT116): 5.30
pIC50 (PC3): 5.70
pIC50 (NCl): < 4.60
pIC50 (HacaT): 5.10
pIC50 (Fibroblasts): < 4.60

Oc1cccc(-c2nc(N3CCOCC3)nc3cc(Cl)cnc23)c1 [Compound 51, 3-(7-chloro-2-morpholinopyrido[3,2-d]pyrimidin-4-yl)phenol]
pIC50 (PI3Kα): 6.26
pIC50 (PI3Kγ): 5.30
pIC50 (PI3Kδ): 5.41
pIC50 (mTOR): 5.28
pIC50 (HUH7): < 4.60
pIC50 (CaCo2): 4.70
pIC50 (MDA): < 4.60
pIC50 (HCT116): < 4.60
pIC50 (PC3): < 4.60
pIC50 (NCl): < 4.60
pIC50 (HacaT): < 4.60
pIC50 (Fibroblasts): < 4.60

COCc1cn(Cc2cnc3c(N4CCOCC4)nc(-c4ccc(NC(=O)Nc5ccc(CO)cc5)cc4)nc3c2)nn1 [Compound 81, 1-[4-(hydroxymethyl)phenyl]-3-[4-(7-{[4-(methoxymethyl)-1H-1,2,3-triazol-1-yl]methyl}-4-(morpholin-4-yl)pyrido[3,2-d]pyrimidin-2-yl)phenyl]urea]
pIC50 (PI3Kα): 8.52
pIC50 (HUH7): 5.15
pIC50 (CaCo2): 5.70
pIC50 (MDA): 6.30
pIC50 (HCT116): 7.00
pIC50 (PC3): 7.00
pIC50 (NCl): 6.52
pIC50 (HacaT): 6.52
pIC50 (Fibroblasts): < 4.60

CN1CCN(Cc2cnc3c(N4CCOCC4)nc(-c4cccc(O)c4)nc3c2)CC1 [Compound 30, 3-(7-((4-methylpiperazin-1-yl)methyl)-4-morpholinopyrido[3,2-d]pyrimidin-2-yl)phenol hydrochloride]
pIC50 (PI3Kα): 6.41
pIC50 (PI3Kγ): 6.61
pIC50 (PI3Kδ): 6.80
pIC50 (mTOR): 5.66
pIC50 (HUH7): 5.30
pIC50 (CaCo2): 5.70
pIC50 (MDA): 4.70
pIC50 (HCT116): 5.00
pIC50 (PC3): 5.15
pIC50 (NCl): 4.82
pIC50 (HacaT): 5.10
pIC50 (Fibroblasts): < 4.60

Oc1cccc(-c2nc(N3CCOCC3)c3ncc(Cl)cc3n2)c1 [Compound 6, 3-(7-Chloro-4-morpholinopyrido[3,2-d]pyrimidin-2-yl)phenol]
pIC50 (PI3Kα): 7.92
pIC50 (PI3Kγ): 6.56
pIC50 (PI3Kδ): 8.00
pIC50 (mTOR): 6.74
pIC50 (HUH7): 6.10
pIC50 (CaCo2): 5.10
pIC50 (MDA): < 4.60
pIC50 (HCT116): 5.05
pIC50 (PC3): < 4.60
pIC50 (NCl): < 4.60
pIC50 (HacaT): 5.40
pIC50 (Fibroblasts): < 4.60

Oc1cccc(-c2nc(N3CCOCC3)c3ncc(CN4CCN(C5CCCCC5)CC4)cc3n2)c1 [Compound 56, 3-{7-[(4-cyclohexylpiperazin-1-yl)methyl]-4-(morpholin-4-yl)pyrido[3,2-d]pyrimidin-2yl}phenol]
pIC50 (PI3Kα): 7.96
pIC50 (HUH7): 5.22
pIC50 (CaCo2): 5.22
pIC50 (MDA): 4.92
pIC50 (HCT116): 5.15
pIC50 (PC3): 5.10
pIC50 (NCl): 4.96
pIC50 (HacaT): 5.10
pIC50 (Fibroblasts): 5.00

Oc1cccc(-c2nc(N3CCOCC3)c3ncc(CNC4CCCCC4)cc3n2)c1 [Compound 28, 3-(7-((cyclohexylamino)methyl)-4-morpholinopyrido[3,2-d]pyrimidin-2-yl)phenol hydrochloride]
pIC50 (PI3Kα): 6.45
pIC50 (PI3Kγ): 6.11
pIC50 (PI3Kδ): 6.67
pIC50 (mTOR): 5.92
pIC50 (HUH7): 4.82
pIC50 (CaCo2): 5.00
pIC50 (MDA): < 4.60
pIC50 (HCT116): 4.70
pIC50 (PC3): 4.60
pIC50 (NCl): 4.60
pIC50 (HacaT): 4.70
pIC50 (Fibroblasts): < 4.60

Oc1cccc(-c2nc(N3CCOCC3)c3ncc(CNC4CC4)cc3n2)c1 [Compound 27, 3-(7-((cyclopropylamino)methyl)-4-morpholinopyrido[3,2-d]pyrimidin-2-yl)phenolhydrochloride]
pIC50 (PI3Kα): 6.96
pIC50 (PI3Kγ): 6.37
pIC50 (PI3Kδ): 7.96
pIC50 (mTOR): 6.60
pIC50 (HUH7): < 4.60
pIC50 (CaCo2): 5.52
pIC50 (MDA): < 4.60
pIC50 (HCT116): 5.30
pIC50 (PC3): 5.70
pIC50 (NCl): < 4.60
pIC50 (HacaT): < 4.60
pIC50 (Fibroblasts): < 4.60

[N-]=[N+]=NCc1cnc2c(N3CCOCC3)nc(-c3cccc(O)c3)nc2c1 [Compound 39, 3-(7-(azidomethyl)-4-morpholinopyrido[3,2-d]pyrimidin-2-yl)phenol]
pIC50 (PI3Kα): 8.00
pIC50 (PI3Kγ): 7.37
pIC50 (PI3Kδ): 7.66
pIC50 (mTOR): 7.26
pIC50 (HUH7): 5.40
pIC50 (CaCo2): 5.70
pIC50 (MDA): < 4.60
pIC50 (HCT116): 5.30
pIC50 (PC3): 5.52
pIC50 (NCl): 5.52
pIC50 (HacaT): 5.40
pIC50 (Fibroblasts): < 4.60
